Test results reported in US8809348B2, “6-arylmethyl substituted pyrazolo[3,4-d]pyrimidines” (Boehringer Ingelheim International GmbH, priority 2003, dated 2014).
Structures can show the parent of a compound that is named as a salt. Blank lines part the entries; values can stand above or below the molecule they belong to.

Experiments:
[1] = target: T1, PDE9A (Homo sapiens, UniProt O76083); settings: concentrations of up to 100 μM; cited from earlier work
[2] = target: T1, PDE9A; assay: PDE inhibition: recombinant PDE9A scintillation proximity assay; type: biochemical; parameters: made in house; host or cells: Sf9 cells (pFASTBAC baculovirus expression system); settings: inhibiting effect on PDE9A, recombinant enzyme expressed in Sf9 cells, [8-3H]cGMP substrate
Description: Recombinant PDE1C (GenBank/EMBL Accession Number: NM_005020, Loughney et al. J. Biol. Chem. 1996 271, 796-806), PDE2A (GenBank/EMBL Accession Number: NM_002599, Rosman et al. Gene 1997 191, 89-95), PDE3B (GenBank/EMBL Accession Number: NM_000922, Miki et al. Genomics 1996, 36, 476-485), PDE4B (GenBank/EMBL Accession Number: NM_002600, Obernolte et al. Gene. 1993, 129, 239-247), PDE5A (GenBank/EMBL Accession Number: NM_001083, Loughney et al. Gene 1998, 216, 139-147), PDE7B (GenBank/EMBL Accession Number: NM_018945, Hetman et al. Proc. Natl. Acad. Sci. U.S.A. 2000, 97, 472-476), PDE8A (GenBank/EMBL Accession Number: AF 056490, Fisher et al. Biochem. Biophys. Res. Commun. 1998 246, 570-577), PDE9A (Fisher et al., J. Biol. Chem., 1998, 273 (25): 15559-15564), E10A (GenBank/EMBL Accession Number: NM_06661, Fujishige et al. J Biol Chem. 1999, 274, 18438-45), PDE11A (GenBank/EMBL Accession Number: NM_016953, Fawcett et al. Proc. Natl. Acad. Sci. 2000, 97, 3702-3707) were expressed in Sf9 cells with the aid of the pFASTBAC baculovirus expression system (GibcoBRL).
The test substances are dissolved in 100% DMSO and serially diluted to determine their in vitro effect on PDE 9A. Typically, serial dilutions from 200 μM to 1.6 μM are prepared (resulting final concentrations in the assay: 4 μM to 0.032 μM). 2 μL portions of the diluted substance solutions are introduced into the wells of microtiter plates (Isoplate; Wallac Inc., Atlanta, Ga.). Then 50 μL of a dilution of the PDE9A preparation described above are added. The dilution of the PDE9A preparation is chosen so that less than 70% of the substrate is converted during the subsequent incubation (typical dilution: 1:10000; dilution buffer: 50 mM Tris/HCl pH 7.5, 8.3 mM MgCl2, 1.7 mM EDTA, 0.2% BSA). The substrate, [8-^3H] guanosine 3′,5′-cyclic phosphate (1 μCi/μL; Amersham Pharmacia Biotech., Piscataway, N.J.) is diluted 1:2000 with assay buffer (50 mM Tris/HCl pH 7.5, 8.3 mM MgCl2, 1.7 mM EDTA) to a concentration of 0.0005 μCi/μL. The enzyme reaction is finally started by adding 50 μL (0.025 μCi) of the diluted substrate. The assay mixtures are incubated at room temperature for 60 min and the reaction is stopped by adding 25 μl of a PDE9A inhibitor (e.g. the inhibitor from preparation example 1, final concentration 10 μM) dissolved in assay buffer. Immediately thereafter, 25 μL of a suspension containing 18 mg/mL Yttrium Scintillation Proximity Beads (Amersham Pharmacia Biotech., Piscataway, N.J.) are added. […] The plates are then measured for 30 s per well in a Microbeta scintillation counter (Wallac Inc., Atlanta, Ga.). IC50 values are determined from the graphical plot of the substance concentration versus the percentage inhibition. […]

[3] = target: T2, Murine PDE9A (Mus musculus, UniProt O70628); settings: concentrations below 200 μM; cited from earlier work
T2 sequence (O70628 1-534): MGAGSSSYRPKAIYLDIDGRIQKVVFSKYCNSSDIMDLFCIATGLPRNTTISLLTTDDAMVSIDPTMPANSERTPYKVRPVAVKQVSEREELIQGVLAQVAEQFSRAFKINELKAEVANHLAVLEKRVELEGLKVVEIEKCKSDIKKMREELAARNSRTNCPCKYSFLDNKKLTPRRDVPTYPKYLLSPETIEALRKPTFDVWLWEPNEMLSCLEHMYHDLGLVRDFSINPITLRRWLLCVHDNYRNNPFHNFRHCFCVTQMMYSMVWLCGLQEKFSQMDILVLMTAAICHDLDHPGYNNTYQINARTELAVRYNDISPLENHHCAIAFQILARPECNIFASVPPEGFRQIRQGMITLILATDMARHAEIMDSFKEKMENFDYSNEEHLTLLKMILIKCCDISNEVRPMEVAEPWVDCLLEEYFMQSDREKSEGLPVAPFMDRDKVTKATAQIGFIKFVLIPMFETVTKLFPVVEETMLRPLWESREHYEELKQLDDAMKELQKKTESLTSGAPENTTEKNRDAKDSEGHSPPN

T1 sequence (O76083 whole entry): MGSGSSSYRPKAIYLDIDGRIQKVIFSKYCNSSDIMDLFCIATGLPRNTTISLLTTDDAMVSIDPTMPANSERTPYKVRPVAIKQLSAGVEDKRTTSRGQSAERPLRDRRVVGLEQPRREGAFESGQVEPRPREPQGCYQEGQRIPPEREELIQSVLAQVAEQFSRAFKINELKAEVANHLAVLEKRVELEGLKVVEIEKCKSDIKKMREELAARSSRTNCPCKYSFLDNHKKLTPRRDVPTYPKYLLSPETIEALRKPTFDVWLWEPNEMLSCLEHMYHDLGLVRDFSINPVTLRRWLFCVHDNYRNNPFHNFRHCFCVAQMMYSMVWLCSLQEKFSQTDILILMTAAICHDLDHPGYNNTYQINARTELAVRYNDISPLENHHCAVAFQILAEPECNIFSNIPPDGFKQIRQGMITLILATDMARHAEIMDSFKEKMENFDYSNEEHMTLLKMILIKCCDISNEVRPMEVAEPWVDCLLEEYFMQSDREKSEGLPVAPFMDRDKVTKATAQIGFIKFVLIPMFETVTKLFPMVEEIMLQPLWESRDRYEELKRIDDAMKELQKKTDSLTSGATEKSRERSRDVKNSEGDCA

SMILES: OCCN(CCO)c1nc(N2CCCCC2)c2nc(N(CCO)CCO)nc(N3CCCCC3)c2n1 [dipyridamole]
inhibition on the isolated enzyme [1]: no inhibition

SMILES: CCOC(=O)C1=C[C@]2(CC)CCCN3CCc4c(n1c1ccccc41)[C@@H]32 [vinpocetine]
inhibition on the isolated enzyme [1]: no inhibition

SMILES: COc1ccc(C2CNC(=O)C2)cc1OC1CCCC1 (stereo not drawn) [rolipram]
inhibition on the isolated enzyme [1]: no inhibition

SMILES: Cc1ccccc1-n1ncc2c(=O)[nH]c(Cc3ccccc3Br)nc21 [Example 9, 6-(2-Bromobenzyl)-1-(2-methylphenyl)-1,5-dihydropyrazolo[3,4-d]pyrimidin-4-one]
IC50 [2]: < 30 nM

SMILES: Cc1ccccc1-n1ncc2c(=O)[nH]c(Cc3ccccn3)nc21 (as salt: sodium) [Example 17, 1-(2-Methylphenyl)-6-(2-pyridinylmethyl)-1,5-dihydro-4H-pyrazolo[3,4-d]pyrimidin-4-one]
melting point: 162 °C

SMILES: CC(=O)Nc1ccc(-c2c[nH]c(=O)cn2)cc1 [SKF94120]
inhibition on the isolated enzyme [1]: no inhibition

SMILES: CC(C)Cn1c(=O)n(C)c(=O)c2[nH]cnc21 [IBMX]
inhibition on the isolated enzyme [1]: no inhibition | inhibition of murine PDE9A [3]: not inhibited

Next, values leading:

melting point: 215 °C
SMILES: Cc1ccccc1-n1ncc2c(=O)[nH]c(Cc3cccc(Cl)c3)nc21 (as salt: sodium) [Example 16, 6-(3-Chlorobenzyl)-1-(2-methylphenyl)-1,5-dihydro-4H-pyrazolo[3,4-d]pyrimidin-4-one]

melting point: 188 °C
SMILES: O=c1[nH]c(Cc2cccc(Cl)c2)nc2c1cnn2-c1ccccc1Cl (as salt: sodium) [Example 21, 6-(3-Chlorobenzyl)-1-(2-chlorophenyl)-1,5-dihydro-4H-pyrazolo[3,4-d]pyrimidin-4-one]

melting point: 196 °C
SMILES: COc1ccccc1-n1ncc2c(=O)[nH]c(Cc3cccc(Cl)c3)nc21 (as salt: sodium) [Example 23, 6-(3-Chlorobenzyl)-1-(2-methoxyphenyl)-1,5-dihydro-4H-pyrazolo[3,4-d]pyrimidin-4-one]

melting point: 152 °C
SMILES: O=c1[nH]c(Cc2cccc(Cl)c2)nc2c1cnn2-c1ccccc1C(F)(F)F (as salt: sodium) [Example 19, 6-(3-Chlorobenzyl)-1-(2-trifluoromethylphenyl)-1,5-dihydro-4H-pyrazolo[3,4-d]pyrimidin-4-one]

IC50 [2]: 64 nM
SMILES: O=c1[nH]c(Cc2cccc(Cl)c2)nc2c1cnn2-c1c(Cl)cccc1Cl [Example 4, 6-(3-Chlorobenzyl)-1-(2,6-dichlorophenyl)-1,5-dihydropyrazolo[3,4-d]pyrimidin-4-one]

melting point: 230 °C
SMILES: O=c1[nH]c(Cc2cccc(Cl)c2)nc2c1cnn2-c1ccccn1 (as salt: sodium) [Example 22, 6-(3-Chlorobenzyl)-1-(2-pyridinyl)-1,5-dihydro-4H-pyrazolo[3,4-d]pyrimidin-4-one]

IC50 [2]: < 30 nM
SMILES: O=c1[nH]c(Cc2cccc(Cl)c2)nc2c1cnn2-c1ccccc1Cl [Example 21, 6-(3-Chlorobenzyl)-1-(2-chlorophenyl)-1,5-dihydro-4H-pyrazolo[3,4-d]pyrimidin-4-one]

melting point: 208 °C
SMILES: CCc1ccccc1-n1ncc2c(=O)[nH]c(Cc3cccc(Cl)c3)nc21 (as salt: sodium) [Example 18, 6-(3-Chlorobenzyl)-1-(2-ethylphenyl)-1,5-dihydro-4H-pyrazolo[3,4-d]pyrimidin-4-one]

melting point: 197 °C
SMILES: O=c1[nH]c(Cc2cccc(Cl)c2)nc2c1cnn2-c1ccccc1F (as salt: sodium) [Example 20, 6-(3-Chlorobenzyl)-1-(2-fluorophenyl)-1,5-dihydro-4H-pyrazolo[3,4-d]pyrimidin-4-one]

IC50 [2]: 50 nM
SMILES: Cc1cccc(-n2ncc3c(=O)[nH]c(Cc4cccc(Cl)c4)nc32)c1C [Example 2, 6-(3-Chlorobenzyl)-1-(2,3-dimethylphenyl)-1,5-dihydropyrazolo[3,4-d]pyrimidin-4-one]
